According to patent US8563580B2, “Flavivirus inhibitors and methods for their use” (Georgetown University, priority 2008, dated 2013):

Test system: WNV protease
Experiment: High Throughput Screen (HTS) protease assay
Type: biochemical, West Nile virus (EG101 strain)
Conditions: 100 nl of 5 mg/ml compound in DMSO per 30.1 μl well; substrate Boc-Gly-Lys-Arg-AMC 50 μM; DMSO controls = 100% activity
Experimental: Procedures for expression and purification of WNV (EG101 strain) were similar to those described elsewhere by Mueller et al., Int. J. Biochem. Cell. Biol., 39: 606-14 (2007). Briefly, E. coli Top10 F′ cells (Invitrogen, Carlsbad, Calif.) were transformed with the protease expression plasmid. Cells were grown at 37° C. until the OD600 was ˜0.5. Cells were then induced with isopropyl-1-thio-β-D-galactopyranoside (American Bioanalytical, Natick, Mass.) (0.5 mM), and incubated for 4 h at 37° C. Cells were harvested by centrifugation (5000×g) for 15 min at 4° C., washed once with a buffer containing 50 mM Tris-HCl, pH 7.5, and 200 mM NaCl, centrifuged at 5000×g for 15 min at 4° C., and stored at -80° C. until used.
Proteases were purified by suspending bacterial pellets in 50 mM Hepes, pH 7.0, 500 mM NaCl, (buffer A) with 0.05 mg/ml lysozyme. Cells were incubated for 30 min on ice after addition of 10% stock solution of Triton X-100 (final concentration of 0.5%). Cells were disrupted by sonication for 2 min and the soluble fraction was collected after centrifugation (15,000×g) for 30 min at 4° C. The soluble fraction was incubated for 1 h at 4° C. with Talon resin (BD Bioscience, San Jose, Calif.) which was pre-equilibrated in buffer A. The affinity resin was centrifuged at (400×g) for 10 min at 4° C., washed three times with buffer A, and packed into a column. Washing of the column was continued with the buffer A containing 10 mM imidazole, followed by elution of the protease with buffer A containing 150 mM imidazole. The protease was concentrated and further purified by Sephadex G-75 gel filtration chromatography. The purified protease fractions were pooled and dialyzed against a buffer containing 50 mM Tris-HCl pH 7.5 and 300 mM NaCl (4×1 L). Aliquots (100 μl) were frozen at −80° C.
The protease assay (100 μl) described by Mueller et al., Int. J. Biochem. Cell. Biol. 39: 606-14 (2007) was adapted for a 384-well plate format (30.1 μl). Microtiter plates were loaded sequentially with 14 μl of the reaction buffer containing 200 mM Tris-HCl, pH 9.5, and 30% glycerol (TG buffer) using an automated Wellmate (Matrix, Hudson, N.H.) and 6 μl of WNV protease (0.05 μM) (as prepared above) in TG buffer containing 15 mM NaCl (3 mM final concentration). Plates were then centrifuged at 1000×g for 3 min at room temperature to mix samples and pool liquids at the bottom of the wells. Inhibitor compounds (100 nl of 5 mg/ml in dimethyl sulfoxide; DMSO) were added to each well in duplicate by a pin-transfer mechanism of a robotic delivery system. The final inhibitor concentrations in the assays varied due to different molecular weights of the compounds from the libraries that were screened. Plates were incubated at room temperature to allow for formation of protease/inhibitor complexes. The fluorogenic substrate, t-butyl-oxycarbonyl(Boc)-Gly-Lys-Arg-7-amino-4-methyl coumarin (AMC) (10 μl in TG buffer; 50 μM final concentration in the reaction mixture), was added using the Wellmate, and the plates were centrifuged for 3 min at 1000×g and incubated at room temperature for 15 min. Fluorescence was measured at excitation and emission wavelengths of 385 nm and 465 nm, respectively, on a Perkin-Elmer (Waltham, Mass.) spectrofluorometer. To validate the assay conditions, aprotinin (bovine pancreatic trypsin inhibitor, BPTI) was used as a positive control. Assay mixtures containing DMSO were used as negative controls. The average of fluorescence values in duplicate wells for a given compound was used to determine the percent activity by taking the values obtained with DMSO controls as 100%. Compounds 1-11, 18-32, and 37-101 above were identified. […] Compounds 12-17 are compounds related to those identified in the HTS screen that also show significant WNV protease inhibition, i.e., >95%.

Row | SMILES | % Inhibition (reduction in protease activity) [%]
1 | COc1ccc(C(NC(=O)c2ccccc2)c2ccc3cccnc3c2O)cc1 (stereo not shown) [Compound 1] | 86
2 | O=C(NC(c1ccccc1Cl)c1ccc2cccnc2c1O)c1ccccc1 (stereo not shown) [Compound 2] | 85
3 | COC(=O)c1ccc(C(Nc2ccccn2)c2ccc3ccc(C)nc3c2O)cc1 (stereo not shown) [Compound 3] | 84.5
4 | Cc1ccc2ccc(C(Nc3ccccn3)c3ccc4c(c3)OCO4)c(O)c2n1 (stereo not shown) [Compound 4] | 83
5 | C=CCOc1cccc(C(Nc2cccc(C)n2)c2ccc3cccnc3c2O)c1 (stereo not shown) [Compound 5] | 81
6 | CN(C)c1ccc(C(Nc2nccs2)c2ccc3cccnc3c2O)cc1 (stereo not shown) [Compound 6] | 76
7 | CCCCC(=O)NC(c1cccs1)c1cc(Cl)c2cccnc2c1O (stereo not shown) [Compound 7] | 76
8 | Oc1c(C(Nc2ccccn2)c2ccccc2)ccc2cccnc12 (stereo not shown) [Compound 8] | 75
9 | Oc1c(C(Nc2nccs2)c2ccc(F)cc2)ccc2cccnc12 (stereo not shown) [Compound 9] | 74
10 | Cc1cc(NC(c2cccc(Br)c2)c2ccc3cccnc3c2O)no1 (stereo not shown) [Compound 10] | 70
11 | Oc1c(C(c2ccc(Cl)cc2)N2CCOCC2)cc(Cl)c2cccnc12 (stereo not shown) [Compound 11] | 65
12 | Cc1ccnc(NC(c2ccccc2O)c2ccc3cccnc3c2O)c1 (stereo not shown) [Compound 12] | >95
13 | Oc1c(C(Nc2nccs2)c2ccccc2)ccc2cccnc12 (stereo not shown) [Compound 14] | >95
14 | Cc1cccc(NC(c2ccccc2OCc2ccccc2)c2ccc3cccnc3c2O)n1 (stereo not shown) [Compound 15] | >95
15 | CCN1C(=O)/C(=C/c2ccc(NC(=O)c3ccccc3Br)cc2)SC1=S [Compound 18] | 83.5
16 | CC(/C=C1\SC(=S)N(CC(=O)Nc2ccccn2)C1=O)=C\c1ccccc1 [Compound 19] | 76.5
17 | O=C(CCCN1C(=O)/C(=C/C=C/c2ccccc2)SC1=S)Nc1ccccn1 [Compound 21] | 74
18 | CC(/C=C1\SC(=S)N(CC(=O)Nc2cccnc2)C1=O)=C\c1ccccc1 [Compound 22] | 72.5
19 | CC(/C=C1\SC(=S)N(CCCC(=O)Nc2cccnc2)C1=O)=C\c1ccccc1 [Compound 23] | 72
20 | CC1=NC(NC(=O)CCN2C(=O)/C(=C/C(C)=C/c3ccccc3)SC2=S)[SH]=C1 (stereo not shown) [Compound 24] | 70
21 | CC(/C=C1\SC(=S)N(CCC(=O)Nc2ccccc2O)C1=O)=C\c1ccccc1 [Compound 25] | 67
22 | O=C1/C(=C/C2C=CC=[SH]2)SC(=S)N1CC(=O)N(Cc1ccccc1)c1ccccc1 (stereo not shown) [Compound 26] | 67
23 | O=C(CCCN1C(=O)/C(=C/C=C/c2ccccc2)SC1=S)Nc1cccc(F)c1 [Compound 27] | 66
24 | O=C(CCCN1C(=O)/C(=C/C=C/c2ccccc2)SC1=S)Nc1cccc(O)c1 [Compound 28] | 63
25 | Cc1cccc(N2C(=O)/C(=C/c3ccc(O)c(O)c3)SC2=S)c1C [Compound 29] | 58
26 | O=C1NC(=S)S/C1=C\c1ccc(-c2cccc(C(F)(F)F)c2)o1 [Compound 30] | 53

Row | SMILES | % Inhibition (reduction in protease activity) [%]
27 | CC(C)N1C(=O)/C(=C2/C(=O)N(CC(=O)O)c3ccc(Br)cc32)SC1=S [Compound 31] | 53
28 | COC(=O)/C=C1\S/C(=N/c2ccc(Cl)cc2)N(c2ccc(Cl)cc2)C1=O [Compound 32] | 59
29 | Clc1ccc(CN2COc3c(cc(Cl)c4cccnc34)C2)cc1 [Compound 37] | 71
30 | CC(Oc1cc(Cl)ccc1Cl)C(=O)N1CCc2ccccc21 (stereo not shown) [Compound 38] | 58
31 | COc1ccc(OCC(=O)OCCN2C(=O)c3ccccc3C2=O)cc1 [Compound 39] | 57
32 | O=C(c1conc1-c1ccccc1)n1cccc1 [Compound 40] | 56
33 | Cn1c(=O)n(CCOc2ccc(Cl)cc2)c2ccccc21 [Compound 41] | 56
34 | O=C1c2ccccc2C(O)(Cc2ccccc2)N1c1ccc2c(c1)OCO2 (stereo not shown) [Compound 42] | 54
35 | O=C1C(c2ccccc2)c2ccccc2N1Cc1ccccc1 (stereo not shown) [Compound 43] | 54
36 | O=C1Nc2ccccc2/C1=C/c1ccccc1N1CCOCC1 [Compound 44] | 52
37 | Cc1ccc(-c2csc(-n3sc4ccccc4c3=O)n2)cc1 [Compound 45] | 52
38 | CCOC(=O)C1C(=O)N(C(=O)c2ccc(OC)cc2)CC1c1ccccc1 (stereo not shown) [Compound 46] | 50
39 | O=C(COc1cccc2ccccc12)N1CCc2ccccc2C1 [Compound 47] | 83
40 | O=c1[nH]c2ccccc2c(O)c1-c1nc2ccccc2s1 [Compound 48] | 67
41 | COC(=O)c1ccc2c(c1)N(Cc1nc(-c3ccccc3C)oc1C)C(=O)C1CCCN21 (stereo not shown) [Compound 49] | 58
42 | O=C1N=c2ccc(S(=O)(=O)N(CCc3ccccc3)Cc3ccccc3)cc2=NC1=O [Compound 50] | 55
43 | C=CCn1c(Cc2ccccc2)nc2c(cnn2-c2ccccc2)c1=O [Compound 52] | 52
44 | COc1ccc(Cc2c(O)nc(SC)n(-c3ccccc3)c2=O)cc1 [Compound 55] | 51
45 | C=CCn1c(SCc2ccc(C(=O)OC)cc2)nc2ccccc2c1=O [Compound 56] | 51
46 | O=C(CC1Sc2ncnn2C1=O)Nc1ccc(Br)cc1 (stereo not shown) [Compound 57] | 58
47 | O=C(Nc1ccc(F)cc1F)c1ccc2c(c1)C(=O)N(Cc1ccco1)C2=O [Compound 58] | 55
48 | CCOC(=O)c1ccc(NC(=O)Cn2ncc3c4ccccc4n(Cc4ccccc4)c3c2=O)cc1 [Compound 59] | 53
49 | O=C(Cn1cnc2ccccc2c1=O)Nc1ccc(Oc2ccccc2)cc1 [Compound 60] | 51
50 | CCOc1cc2c(cc1OCC)C1C(C(=O)NCCCN3CCN(C)CC3)c3ccccc3C(=O)N1CC2 (stereo not shown) [Compound 61] | 51
51 | CC1CCN(S(=O)(=O)c2ccc(NC(=O)/C=C/c3ccco3)cc2)CC1 [Compound 62] | 72
52 | COc1ccc(NC(=O)c2c(N)sc(-c3ccccc3)c2C)cc1 [Compound 63] | 65
